In brackets after ≈: the same amount, converted by molar mass.
Legend:
[1] = tested on: Escherichia coli; experiment: Antimicrobial activity against Escherichia coli; format: functional
[2] = tested on: Morganella morganii; experiment: Antimicrobial activity against Morganella morganii; format: functional
[3] = tested on: Serratia marcescens; experiment: Antimicrobial activity against Serratia marcescens; format: functional
[4] = tested on: KB; experiment: Cytotoxicity against human KB cells; format: functional, cell-based
[5] = tested on: Pseudomonas aeruginosa; experiment: Antimicrobial activity against Pseudomonas aeruginosa; format: functional
[6] = tested on: Staphylococcus aureus; experiment: Antimicrobial activity against methicillin-sensitive Staphylococcus aureus; format: functional
[7] = tested on: P388; experiment: Cytotoxicity against mouse P388 cells; format: functional, cell-based
[8] = tested on: Klebsiella pneumoniae; experiment: Antimicrobial activity against Klebsiella pneumoniae; format: functional
[9] = tested on: Staphylococcus aureus; experiment: Antimicrobial activity against methicillin-resistant Staphylococcus aureus; format: functional
[10] = tested on: Proteus mirabilis; experiment: Antimicrobial activity against Proteus mirabilis; format: functional
[11] = tested on: Enterococcus faecalis; experiment: Antimicrobial activity against Streptococcus faecalis; format: functional

| SMILES | MIC [1] [µg/mL] | MIC [2] [µg/mL] | MIC [3] [µg/mL] | IC50 [4] [µg/mL] | MIC [5] [µg/mL] | MBC/MIC ratio [6] | MIC [6] [µg/mL] | IC50 [7] [µg/mL] | MIC [8] [µg/mL] | MBC/MIC ratio [9] | MIC [9] [µg/mL] | MIC [10] [µg/mL] | MBC/MIC ratio [11] | MIC [11] [µg/mL] |
| --- | --- | --- | --- | --- | --- | --- | --- | --- | --- | --- | --- | --- | --- | --- |
| CC(C)=CCCC1(C)C=Cc2cc(O)ccc2O1 (stereo not drawn) [CORDIACHROMENE A] | > 256 | > 256 | > 256 | 36 (≈ 147 µM) | > 256 | 2 | 64 (≈ 262 µM) | 0.5 (≈ 2.05 µM) | > 256 | 2 | 64 (≈ 262 µM) | > 256 | 1 | 64 (≈ 262 µM) |
| CC(C)=CCC/C(C)=C/Cc1cc(O)ccc1O [GEROQUINOL] | > 256 | > 256 | 128 (≈ 520 µM) | 4.3 (≈ 17.5 µM) | > 256 | 2 | 64 (≈ 260 µM) | 0.034 (≈ 0.138 µM) | > 256 | 2 | 64 (≈ 260 µM) | > 256 | 1 | 64 (≈ 260 µM) |

From ChEMBL document CHEMBL1150759, “[Cytotoxic and antibacterial substances from the ascidian Aplidium antillense]” (J Nat Prod, 1988)
